In US20100168112A1, “2-Substituted and 4-substituted aryl nitrone compounds” (RENOVIS, INC., priority 2004, published 2010):
Like-named read-outs stand apart in the source and are kept apart here.

Key:
[1] = Solubility measurement at pH 7.4; type: physicochemical; settings: aqueous buffer, thermodynamic from solid, phosphate buffer pH 7.4, room temperature
Procedure: Nitrone compounds (>3 mg) of this invention were mixed with a phosphate buffer at pH 7.4 to make a >0.3 mg/mL mixture. The mixture was vortexed for more than 2 hours and equilibrated over 12 hours at room temperature. The equilibrated mixture was used to saturate a 0.45 μm Tuffryn syringe filter. After saturating, the remainder of the mixture was filtered through the saturated filter. The filtrate was diluted by 1, 10, 100, and 1000 fold and analyzed using a LC/MS/MS method with standard curve ranging from 1 to 1000 ng/mL.

[2] = Microsomal stability in human liver microsomes; type: in vitro ADME; settings: NADPH, 37° C.
Procedure: Frozen Sprague-Dawley rat liver microsomes (RLM) were thawed on ice and gently mixed before use. The final reaction mixture consisted of a nitrone compound of this invention (at ˜500 ng/ml), 1 mM NADPH, and 0.5 mg/ml of RLM protein in 0.1 M PBS (pH7.4), with organic solvent concentration not exceeding 1% (v/v). Per set of incubations, a positive control compound was included. The mixture was first pre-incubated 3 to 5 minutes at 37° C. without NADPH, and the reaction was then initialized by the addition of NADPH and incubated at 37° C. for up to 30 minutes. An aliquot of the reaction mixture was sampled at the initiation of the reaction and at designated time after reaction started. The drawn samples were quenched with acetonitrile, diluted with mobile phase to ensure the detection of test article in the linear range, and analyzed by LC/MS/MS. Half-life or percentage of remaining nitrone compound was calculated using standard methods. A similar method, or a slight variation of it, was used to test the stability of nitrones in human liver microsomes (HLM).

[3] = DPPH free radical-scavenging/antioxidant assay; type: biochemical; settings: 50 μM DPPH in 80% methanol; 24 h time point; read-out: EC50 (concentration at which a compound reduces by 50% the peak absorbance of DPPH at 520 nm)
Procedure: Nitrone compounds of the present invention were tested for their free-radical scavenging/antioxidant activity in an in vitro assay that is accepted by those skilled in the art as a model for conditions involving the generation of free radicals. The assay is based on a reaction between a free-radical donor, 2,2-diphenyl-1-picrylhydrazyl (DPPH), and a radical scavenger/antioxidant to be tested for free-radical scavenging activity. Upon donation of the free-radical electron to the purported radical scavenger, the peak visible absorbance of DPPH (515-520 nm) decreases so that optical density readings at this part of the visual spectrum reflect the progression of the following reaction:
where AH is a hypothetical radical scavenger/antioxidant. The assay is based on a protocol originally detailed in Brand-Williams, W. et al., 1995, Use of a Free Radical Method to Evaluate Antioxidant Activity, Lebensm. Wiss. Technol., 28:25-30, with further modifications described in L. R. Fukumoto and G. Mazza, 2000, Assessing Antioxidant and Prooxidant Activities of Phenolic Compounds, J. Agric. Food Chem., 48:3597-3604.
The antioxidant assay was performed using Perkin-Elmer 96-well, clear-bottom, black-wall plates (ordered from E & K Scientific Products) and a Tecan Safire absorbance plate reader. The positive controls were Trolox (6-hydroxy-2,5,7,8-tetramethylchromane-2-carboxylic acid, Sigma-Aldrich), BHA (2(3)-tert-butylhydroquinone monomethyl ether, Sigma-Aldrich), PBN (C-(phenyl)-N-(tert-butyl)nitrone, Sigma-Aldrich) and S-PBN (C-(2-sulfophenyl)-N-(tert-butyl)nitrone, sodium salt, prepared according to E. G. Janzen and R. V. Shetty, 1979, Tetrahedron Lett., 35: 3229-32), and the negative control (i.e., vehicle) was DMSO. In brief, 2 μL of 100× DMSO stock of the desired final concentration of each control or nitrone compound to be tested in the same batch was added to a separate well. To each well was then added 198 μL of a freshly made 50 μM DPPH (Sigma-Aldrich) solution in 80% methanol using a multi-channel pipette. The absorbance was immediately read on the plate reader at 520 nm and thereafter read periodically to assess kinetics until all reactions reached completion (i.e., steady state). Since the steady-state point was 24 h, the assay results are shown from the 24 h time point. The absorbance at 520 nm (OD) was plotted versus the concentrations of the controls and nitrone compounds to assess dose-response and interpolate the EC50 values of the controls and test compounds.

[4] = read-out: Solubility @ pH 7.4 (μg/mL)

| SMILES | solubility ([1]; read-out: Solubility @ pH 7.4) | solubility [1, 4] | % of Nitrone Remaining at 30 min (Human) [2] | EC50 [3] |
| --- | --- | --- | --- | --- |
| O=S(=O)(c1ccccc1/C=[N+](\[O-])C1CCCCC1)N1CCOCC1 [Compound 36] | 584 µM | 206 µg/mL | 24.2% | > 1000 µM |
| O=S(=O)(c1ccccc1/C=[N+](\[O-])Cc1ccccc1)N1CCOCC1 [Compound 37] | 5020 µM | 1810 µg/mL | 65.4% | 100 to 500 µM |
| CN1CCN(S(=O)(=O)c2ccccc2/C=[N+](\[O-])C(C)(C)C)CC1 [Compound 38, N-tert-Butyl-C-[2-(4-methyl-piperazine-1-sulfonyl)phenyl]nitrone] | > 1860 µM | > 632 µg/mL | 76.6% | > 1000 µM |
| CN1CCN(S(=O)(=O)c2ccccc2/C=[N+](\[O-])C2CCCCC2)CC1 [Compound 39, N-Cyclohexyl-C-[2-(4-methyl-piperazine-1-sulfonyl)phenyl]nitrone] | > 2630 µM | > 962 µg/mL | 41.9% | > 1000 µM |
| CN1CCN(S(=O)(=O)c2ccccc2/C=[N+](\[O-])Cc2ccccc2)CC1 [Compound 40, N-Benzyl-C-[2-(4-methyl-piperazine-1-sulfonyl)phenyl]nitrone] | > 2280 µM | > 851 µg/mL | 27.9% | > 1000 µM |
| CN(c1ccccc1)S(=O)(=O)c1ccccc1/C=[N+](\[O-])C(C)(C)C [Compound 41] | 413 µM | 143 µg/mL | 0% | > 1000 µM |
| CC(C)(C)/[N+]([O-])=C/c1ccccc1S(=O)(=O)N1CCCc2ccccc21 [Compound 44, N-tert-Butyl-C-[2-(3,4-dihydro-2H-quinoline-1-sulfonyl)phenyl]nitrone] | 156 µM | 58.1 µg/mL | 0% | > 1000 µM |
| O=S(=O)(c1ccccc1/C=[N+](\[O-])C1CCCCC1)N1CCCc2ccccc21 [Compound 45, N-Cyclohexyl-C-[2-(3,4-dihydro-2H-quinoline-1-sulfonyl)phenyl]nitrone] | 3.5 µM | 1.42 µg/mL | 0% | > 1000 µM |
| O=S(=O)(c1ccccc1/C=[N+](\[O-])Cc1ccccc1)N1CCCc2ccccc21 [Compound 46, N-Benzyl-C-[2-(3,4-dihydro-2H-quinoline-1-sulfonyl)phenyl]nitrone] | 5.26 µM | 2.14 µg/mL | 0% | > 1000 µM |
| CS(=O)(=O)c1ncccc1/C=[N+](\[O-])C1CCCCC1 [Compound 76, N-Cyclohexyl-C-(2-methanesulfonyl-pyridine-3-yl)nitrone] | > 4070 µM | > 1150 µg/mL | 90.5% | > 1000 µM |
